Results as given in ChEMBL document CHEMBL4819051, “Synthesis and antifungal activity of new hybrids thiazolo[4,5-d]pyrimidines with (1H-1,2,4)triazole” (Bioorg Med Chem Lett, 2021).
In brackets after ≈: the same amount, converted by molar mass. Each block holds one compound with its values, some of them ahead of it.

Columns and labels:
[1] = 1-octanol/aqueous buffer distribution coefficient, logP of the compound at pH 7.4; type: physicochemical
Candida parapsilosis [2] = test: Antifungal activity against Candida parapsilosis ATCC 22019 assessed as reduction in fungal growth incubated for 24 hrs by CLSI based serial microbroth dilution method; type: functional; conditions: Lodderomyces parapsilosis
Candida parapsilosis [3] = test: Antifungal activity against Candida parapsilosis ATCC 22019 assessed as reduction in fungal growth incubated for 48 hrs by CLSI based serial microbroth dilution method; type: functional; conditions: Lodderomyces parapsilosis
Candida albicans [4] = test: Antifungal activity against Candida albicans ATCC 24433 assessed as reduction in fungal growth incubated for 24 hrs by CLSI based serial microbroth dilution method; type: functional
Candida albicans [5] = test: Antifungal activity against Candida albicans ATCC 24433 assessed as reduction in fungal growth incubated for 48 hrs by CLSI based serial microbroth dilution method; type: functional
Candida albicans [6] = test: Antifungal activity against Candida albicans 8R assessed as reduction in fungal growth incubated for 24 hrs by CLSI based serial microbroth dilution method; type: functional
Candida albicans [7] = test: Antifungal activity against Candida albicans 8R assessed as reduction in fungal growth incubated for 48 hrs by CLSI based serial microbroth dilution method; type: functional
Candida albicans [8] = test: Antifungal activity against Candida albicans CBS 8837 assessed as reduction in fungal growth incubated for 24 hrs by CLSI based serial microbroth dilution method; type: functional
Candida albicans [9] = test: Antifungal activity against Candida albicans CBS 8837 assessed as reduction in fungal growth incubated for 48 hrs by CLSI based serial microbroth dilution method; type: functional
Candida albicans [10] = test: Antifungal activity against Candida albicans 604M assessed as reduction in fungal growth incubated for 24 hrs by CLSI based serial microbroth dilution method; type: functional
Candida albicans [11] = test: Antifungal activity against Candida albicans 604M assessed as reduction in fungal growth incubated for 48 hrs by CLSI based serial microbroth dilution method; type: functional
Candida tropicalis [12] = test: Antifungal activity against Candida tropicalis 3019 assessed as reduction in fungal growth incubated for 24 hrs by CLSI based serial microbroth dilution method; type: functional
Candida tropicalis [13] = test: Antifungal activity against Candida tropicalis 3019 assessed as reduction in fungal growth incubated for 48 hrs by CLSI based serial microbroth dilution method; type: functional
Pichia kudriavzevii [14] = test: Antifungal activity against Candida krusei 432M assessed as reduction in fungal growth incubated for 24 hrs by CLSI based serial microbroth dilution method; type: functional
Pichia kudriavzevii [15] = test: Antifungal activity against Candida krusei 432M assessed as reduction in fungal growth incubated for 48 hrs by CLSI based serial microbroth dilution method; type: functional
Cryptococcus neoformans [16] = test: Antifungal activity against Cryptococcus neoformans assessed as reduction in fungal growth incubated for 24 hrs by CLSI based serial microbroth dilution method; type: functional
Cryptococcus neoformans [17] = test: Antifungal activity against Cryptococcus neoformans assessed as reduction in fungal growth incubated for 48 hrs by CLSI based serial microbroth dilution method; type: functional
Aspergillus niger [18] = test: Antifungal activity against Aspergillus niger 37a assessed as reduction in fungal growth incubated for 24 hrs by CLSI based serial microbroth dilution method; type: functional
Aspergillus niger [19] = test: Antifungal activity against Aspergillus niger 37a assessed as reduction in fungal growth incubated for 48 hrs by CLSI based serial microbroth dilution method; type: functional
Microsporum canis [20] = test: Antifungal activity against Microsporum canis B-200 assessed as reduction in fungal growth incubated for 24 hrs by CLSI based serial microbroth dilution method; type: functional
Microsporum canis [21] = test: Antifungal activity against Microsporum canis B-200 assessed as reduction in fungal growth incubated for 48 hrs by CLSI based serial microbroth dilution method; type: functional
Cyberlindnera jadinii [22] = test: Antifungal activity against Candida utilis 84 assessed as reduction in fungal growth incubated for 24 hrs by CLSI based serial microbroth dilution method; type: functional; conditions: Williopsis jadinii
Cyberlindnera jadinii [23] = test: Antifungal activity against Candida utilis 84 assessed as reduction in fungal growth incubated for 48 hrs by CLSI based serial microbroth dilution method; type: functional; conditions: Williopsis jadinii
Trichophyton rubrum [24] = test: Antifungal activity against Trichophyton rubrum 2002 assessed as reduction in fungal growth incubated for 24 hrs by CLSI based serial microbroth dilution method; type: functional
Trichophyton rubrum [25] = test: Antifungal activity against Trichophyton rubrum 2002 assessed as reduction in fungal growth incubated for 48 hrs by CLSI based serial microbroth dilution method; type: functional
Nakaseomyces glabratus [26] = test: Antifungal activity against Candida glabrata 61L assessed as reduction in fungal growth incubated for 24 hrs by CLSI based serial microbroth dilution method; type: functional
Nakaseomyces glabratus [27] = test: Antifungal activity against Candida glabrata 61L assessed as reduction in fungal growth incubated for 48 hrs by CLSI based serial microbroth dilution method; type: functional

SMILES: Cc1ccc(-n2c(=S)sc3c(=O)n(CC(=O)NCC(O)(Cn4cncn4)c4ccc(F)cc4F)cnc32)cc1 (stereo not drawn)
- logD [1]: 1.27

SMILES: O=c1c2sc(=S)n(-c3ccc(Cl)cc3)c2ncn1CCCN1CCN(CC(O)(Cn2cncn2)c2ccc(F)cc2F)CC1 (stereo not drawn)
- MIC (Candida parapsilosis [2]): 0.25 µg/mL (≈ 0.379 µM)
- MIC (Candida parapsilosis [3]): 0.25 µg/mL (≈ 0.379 µM)
- MIC (Candida albicans [4]): 16 µg/mL (≈ 24.3 µM)
- MIC (Candida albicans [5]): 32 µg/mL (≈ 48.5 µM)
- MIC (Candida albicans [6]): 32 µg/mL (≈ 48.5 µM)
- MIC (Candida albicans [7]): 32 µg/mL (≈ 48.5 µM)
- MIC (Candida albicans [8]): 16 µg/mL (≈ 24.3 µM)
- MIC (Candida albicans [9]): 32 µg/mL (≈ 48.5 µM)
- MIC (Candida albicans [10]): 32 µg/mL (≈ 48.5 µM)
- MIC (Candida albicans [11]): 32 µg/mL (≈ 48.5 µM)
- MIC (Candida tropicalis [12]): 8 µg/mL (≈ 12.1 µM)
- MIC (Candida tropicalis [13]): 8 µg/mL (≈ 12.1 µM)
- MIC (Pichia kudriavzevii [14]): 16 µg/mL (≈ 24.3 µM)
- MIC (Pichia kudriavzevii [15]): 32 µg/mL (≈ 48.5 µM)
- MIC (Cryptococcus neoformans [16]): 32 µg/mL (≈ 48.5 µM)
- MIC (Cryptococcus neoformans [17]): 32 µg/mL (≈ 48.5 µM)
- MIC (Aspergillus niger [18]): 32 µg/mL (≈ 48.5 µM)
- MIC (Aspergillus niger [19]): 32 µg/mL (≈ 48.5 µM)
- MIC (Microsporum canis [20]): 32 µg/mL (≈ 48.5 µM)
- MIC (Microsporum canis [21]): 32 µg/mL (≈ 48.5 µM)
- MIC (Cyberlindnera jadinii [22]): 2 µg/mL (≈ 3.03 µM)
- MIC (Cyberlindnera jadinii [23]): 2 µg/mL (≈ 3.03 µM)
- MIC (Trichophyton rubrum [24]): 16 µg/mL (≈ 24.3 µM)
- MIC (Trichophyton rubrum [25]): 16 µg/mL (≈ 24.3 µM)
- MIC (Nakaseomyces glabratus [26]): 2 µg/mL (≈ 3.03 µM)
- MIC (Nakaseomyces glabratus [27]): 32 µg/mL (≈ 48.5 µM)

SMILES: O=C(Cn1cnc2c(sc(=S)n2-c2ccc(Cl)cc2)c1=O)NCC(O)(Cn1cncn1)c1ccc(F)cc1F (stereo not drawn)
- logD [1]: 1.16

SMILES: Cc1ccc(-n2c(=S)sc3c(=O)n(CCCN4CCN(CC(O)(Cn5cncn5)c5ccc(F)cc5F)CC4)cnc32)cc1 (stereo not drawn)
- logD [1]: 4.1
- MIC (Candida parapsilosis [2]): 0.5 µg/mL (≈ 0.783 µM)
- MIC (Candida parapsilosis [3]): 0.5 µg/mL (≈ 0.783 µM)
- MIC (Candida albicans [4]): 16 µg/mL (≈ 25 µM)
- MIC (Candida albicans [5]): 32 µg/mL (≈ 50.1 µM)
- MIC (Candida albicans [6]): 16 µg/mL (≈ 25 µM)
- MIC (Candida albicans [7]): 32 µg/mL (≈ 50.1 µM)
- MIC (Candida albicans [8]): 16 µg/mL (≈ 25 µM)
- MIC (Candida albicans [9]): 32 µg/mL (≈ 50.1 µM)
- MIC (Candida albicans [10]): 32 µg/mL (≈ 50.1 µM)
- MIC (Candida albicans [11]): 32 µg/mL (≈ 50.1 µM)
- MIC (Candida tropicalis [12]): 8 µg/mL (≈ 12.5 µM)
- MIC (Candida tropicalis [13]): 16 µg/mL (≈ 25 µM)
- MIC (Pichia kudriavzevii [14]): 16 µg/mL (≈ 25 µM)
- MIC (Pichia kudriavzevii [15]): 32 µg/mL (≈ 50.1 µM)
- MIC (Cryptococcus neoformans [16]): 64 µg/mL (≈ 100 µM)
- MIC (Cryptococcus neoformans [17]): 64 µg/mL (≈ 100 µM)
- MIC (Aspergillus niger [18]): 32 µg/mL (≈ 50.1 µM)
- MIC (Aspergillus niger [19]): 32 µg/mL (≈ 50.1 µM)
- MIC (Microsporum canis [20]): 32 µg/mL (≈ 50.1 µM)
- MIC (Microsporum canis [21]): 32 µg/mL (≈ 50.1 µM)
- MIC (Cyberlindnera jadinii [22]): 4 µg/mL (≈ 6.26 µM)
- MIC (Cyberlindnera jadinii [23]): 4 µg/mL (≈ 6.26 µM)
- MIC (Trichophyton rubrum [24]): 32 µg/mL (≈ 50.1 µM)
- MIC (Trichophyton rubrum [25]): 32 µg/mL (≈ 50.1 µM)
- MIC (Nakaseomyces glabratus [26]): 2 µg/mL (≈ 3.13 µM)
- MIC (Nakaseomyces glabratus [27]): 32 µg/mL (≈ 50.1 µM)

Next, values leading:

- logD [1]: 0.47
SMILES: O=c1c2sc(=S)n(-c3ccc(F)cc3)c2ncn1CC(O)(Cn1cncn1)c1ccc(F)cc1F (stereo not drawn)

- logD [1]: 0.79
SMILES: Cc1ccc(-n2c(=S)sc3c(=O)n(CC(O)(Cn4cncn4)c4ccc(F)cc4F)cnc32)cc1 (stereo not drawn)

- logD [1]: 0.79
SMILES: O=C(Cn1cnc2c(sc(=S)n2-c2ccc(F)cc2)c1=O)NCC(O)(Cn1cncn1)c1ccc(F)cc1F (stereo not drawn)
